Values after ≈ are worked out from the molar mass of the structure shown.
Assays:
[1] = test system: Streptococcus faecalis 5435; assay: serial dilution liquid medium MIC, Streptococcus faecalis 5435; type: cell-based; settings: Enterococcus faecalis, 24 hours at 37° C., read-out: minimum inhibiting concentration (MIC)
Method: (§1) The method was a serial dilution of liquid medium test wherein a series of tubes were prepared containing the same amount of sterile nutritive medium and increasing amounts of the test product was distributed in each tube. The tubes were then seeded with a bacterial strain and incubated for 24 hours in an oven at 37° C. The degree of inhibition was determined by transillumination to determine the minimum inhibiting concentration (MIC) express in μg/ml and the results are reported in the following Tables.

[2] = test system: Staphylococcus aureus UC 1128; assay: serial dilution liquid medium MIC, Staphylococcus aureus UC 1128 pen-resistant; type: cell-based; settings: UC1128; Staphylococcus aureus UC 1128 pen-resistant; 24 hours at 37° C.; read-out: minimum inhibiting concentration (MIC)
Method: as §1

[3] = test system: Staphylococcus aureus 1061; assay: serial dilution liquid medium MIC, Staphylococcus aureus 1061 pen-sensibles; type: cell-based; settings: 24 hours at 37° C., read-out: minimum inhibiting concentration (MIC)
Method: as §1

[4] = test system: Staphylococcus aureus exp. n° 54 146; assay: serial dilution liquid medium MIC, Staphylococcus aureus exp. n° 54 146; type: cell-based; settings: Staphylococcus aureus exp. 54 146; 24 hours at 37° C.; read-out: minimum inhibiting concentration (MIC)
Method: as §1

[5] = test system: Streptococcus pyogenes A 561; assay: serial dilution liquid medium MIC, Streptococcus pyogenes A 561; type: cell-based; settings: A561, 24 hours at 37° C., read-out: minimum inhibiting concentration (MIC)
Method: as §1

[6] = test system: Streptococcus faecalis 5432; assay: serial dilution liquid medium MIC, Streptococcus faecalis 5432; type: cell-based; settings: Enterococcus faecalis, 24 hours at 37° C., read-out: minimum inhibiting concentration (MIC)
Method: as §1

[7] = test system: Streptococcus faecalis 99 F 74; assay: serial dilution liquid medium MIC, Streptococcus faecalis 99 F 74; type: cell-based; settings: Enterococcus faecalis, 99F74, 24 hours at 37° C., read-out: minimum inhibiting concentration (MIC)
Method: as §1

[8] = test system: Staphylococcus aureus No. 54,146; assay: In vivo activity in mice experimentally infected with Staphylococcus aureus No. 54,146; settings: groups of 10 mice
Method: The test was effected with the compounds of the invention and erythromycin as a reference on groups of 10 mice weighing about 21 g experimentally infected with Staphylococcus aureus No. 54,146 by intraperitoneal administration of 0.5 ml of a 22 hour culture of the said organism in bouillon with a pH of 7 diluted to 1/6 with physiological water. The test compounds were orally administrated to the mice 1,5 and 24 hours after the infection and the mortality on the 8th day was determined.

[9] = dose 0,5mg oral, 1,5 and 24 hours after infection
[10] = dose 0,25mg oral, 1,5 and 24 hours after infection
[11] = dose 0,75mg oral, 1,5 and 24 hours after infection

Row | Structure (SMILES) | MIC [1] | MIC [2] | MIC [3] | MIC [4] | MIC [5] | MIC [6] | MIC [7] | No. of mice living on the 8th day [8, 9] | No. of mice living on the 8th day [8, 10] | No. of mice living on the 8th day [8, 11]
1 | CCSCCON=C1[C@H](C)C[C@@](C)(O)[C@H](O[C@@H]2O[C@H](C)C[C@H](N(C)C)[C@H]2O)[C@@H](C)[C@H](O[C@H]2C[C@@](C)(OC)[C@@H](O)[C@H](C)O2)[C@@H](C)C(=O)O[C@H](CC)[C@@](C)(O)[C@H](O)[C@H]1C [Example 13, 9-[0-(2-ethylthioethyl)-oxime] of erythromycin] | 0.4 µg/mL (≈ 0.478 µM) | 0.6 µg/mL (≈ 0.717 µM) | 0.4 µg/mL (≈ 0.478 µM) | 0.4 µg/mL (≈ 0.478 µM) | 0.02 µg/mL (≈ 0.0239 µM) | 0.01 µg/mL (≈ 0.0119 µM) | 0.1 µg/mL (≈ 0.119 µM) | – | – | –
2 | CC[C@H]1OC(=O)[C@H](C)[C@@H](O[C@H]2C[C@@](C)(OC)[C@@H](O)[C@H](C)O2)[C@H](C)[C@@H](O[C@@H]2O[C@H](C)C[C@H](N(C)C)[C@H]2O)[C@](C)(O)C[C@@H](C)C(=NOCC2CO2)[C@H](C)[C@@H](O)[C@]1(C)O (stereo partly shown) [Example 47, 9-[0-(oxiramylmethyl)-oxime] of erythromycin] | 0.2 µg/mL (≈ 0.248 µM) | 0.4 µg/mL (≈ 0.497 µM) | 0.2 µg/mL (≈ 0.248 µM) | 0.4 µg/mL (≈ 0.497 µM) | 0.05 µg/mL (≈ 0.0621 µM) | 0.2 µg/mL (≈ 0.248 µM) | 0.2 µg/mL (≈ 0.248 µM) | – | – | –
3 | CC[C@H]1OC(=O)[C@H](C)[C@@H](O[C@H]2C[C@@](C)(OC)[C@@H](O)[C@H](C)O2)[C@H](C)[C@@H](O[C@@H]2O[C@H](C)C[C@H](N(C)C)[C@H]2O)[C@](C)(O)C[C@@H](C)C(=NOC(C)CN(CC)CC)[C@H](C)[C@@H](O)[C@]1(C)O (stereo partly shown) [Example 46, 9-[O-(2-diethylamino-isopropyl)-oxime] of erythromycin] | 0.1 µg/mL (≈ 0.116 µM) | 0.6 µg/mL (≈ 0.696 µM) | 0.2 µg/mL (≈ 0.232 µM) | 0.4 µg/mL (≈ 0.464 µM) | ≤ 0.01 µg/mL | 0.05 µg/mL (≈ 0.058 µM) | 0.05 µg/mL (≈ 0.058 µM) | – | – | –
4 | CC[C@H]1OC(=O)[C@H](C)[C@@H](O[C@H]2C[C@@](C)(OC)[C@@H](O)[C@H](C)O2)[C@H](C)[C@@H](O[C@@H]2O[C@H](C)C[C@H](N(C)C)[C@H]2O)[C@](C)(O)C[C@@H](C)C(=NOCCN)[C@H](C)[C@@H](O)[C@]1(C)O [Example 45, 9-[O-(2-aminoethyl)-oxime] of erythromycin] | 0.2 µg/mL (≈ 0.253 µM) | 1 µg/mL (≈ 1.26 µM) | 0.6 µg/mL (≈ 0.758 µM) | 1 µg/mL (≈ 1.26 µM) | ≤ 0.01 µg/mL | 0.4 µg/mL (≈ 0.505 µM) | 0.1 µg/mL (≈ 0.126 µM) | – | – | –
5 | CC[C@H]1OC(=O)[C@H](C)[C@@H](O[C@H]2C[C@@](C)(OC)[C@@H](O)[C@H](C)O2)[C@H](C)[C@@H](O[C@@H]2O[C@H](C)C[C@H](N(C)C)[C@H]2O)[C@](C)(O)C[C@@H](C)C(=NOCOCCN(C)C)[C@H](C)[C@@H](O)[C@]1(C)O [Example 22, 9-[0-{(2-dimethylaminoethoxy)-methyl}-oxime] of erythromycin] | 0.2 µg/mL (≈ 0.235 µM) | 0.6 µg/mL (≈ 0.706 µM) | 0.4 µg/mL (≈ 0.471 µM) | 0.4 µg/mL (≈ 0.471 µM) | ≤ 0.01 µg/mL | 0.05 µg/mL (≈ 0.0588 µM) | 0.05 µg/mL (≈ 0.0588 µM) | – | – | –
6 | CC[C@H]1OC(=O)[C@H](C)[C@@H](O[C@H]2C[C@@](C)(OC)[C@@H](O)[C@H](C)O2)[C@H](C)[C@@H](O[C@@H]2O[C@H](C)C[C@H](N(C)C)[C@H]2O)[C@](C)(O)C[C@@H](C)C(=NOCC(=O)C(C)(C)C)[C@H](C)[C@@H](O)[C@]1(C)O [Example 15, 9-[0-(3,3-dimethyl-2-oxo-butyl)-oxime] of erythromycin] | 0.6 µg/mL (≈ 0.708 µM) | 1 µg/mL (≈ 1.18 µM) | 0.6 µg/mL (≈ 0.708 µM) | 0.6 µg/mL (≈ 0.708 µM) | 0.1 µg/mL (≈ 0.118 µM) | 0.1 µg/mL (≈ 0.118 µM) | 0.2 µg/mL (≈ 0.236 µM) | 9 mice | 1 mice | 10 mice
7 | CC[C@H]1OC(=O)[C@H](C)[C@@H](O[C@H]2C[C@@](C)(OC)[C@@H](O)[C@H](C)O2)[C@H](C)[C@@H](O[C@@H]2O[C@H](C)C[C@H](N(C)C)[C@H]2O)[C@](C)(O)C[C@@H](C)C(=NOCOCCN(CC)CC)[C@H](C)[C@@H](O)[C@]1(C)O [Example 23, 9-[0-{(2-diethylaminoethoxy)-methyl}-oxime] of erythromycin] | 0.2 µg/mL (≈ 0.228 µM) | 1 µg/mL (≈ 1.14 µM) | 0.4 µg/mL (≈ 0.456 µM) | 0.6 µg/mL (≈ 0.683 µM) | 0.02 µg/mL (≈ 0.0228 µM) | 0.1 µg/mL (≈ 0.114 µM) | 0.1 µg/mL (≈ 0.114 µM) | – | – | –
8 | CC[C@H]1OC(=O)[C@H](C)[C@@H](O[C@H]2C[C@@](C)(OC)[C@@H](O)[C@H](C)O2)[C@H](C)[C@@H](O[C@@H]2O[C@H](C)C[C@H](N(C)C)[C@H]2O)[C@](C)(O)C[C@@H](C)C(=NOCSc2ccccc2)[C@H](C)[C@@H](O)[C@]1(C)O [Example 28, 9-[0-(phenylthiomethyl)-oxime] of erythromycin] | 0.4 µg/mL (≈ 0.459 µM) | 0.6 µg/mL (≈ 0.689 µM) | 0.4 µg/mL (≈ 0.459 µM) | 0.6 µg/mL (≈ 0.689 µM) | 0.05 µg/mL (≈ 0.0574 µM) | 0.2 µg/mL (≈ 0.23 µM) | 0.2 µg/mL (≈ 0.23 µM) | – | – | –
9 | CC[C@H]1OC(=O)[C@H](C)[C@@H](O[C@H]2C[C@@](C)(OC)[C@@H](O)[C@H](C)O2)[C@H](C)[C@@H](O[C@@H]2O[C@H](C)C[C@H](N(C)C)[C@H]2O)[C@](C)(O)C[C@@H](C)C(=NOCCNC(C)C)[C@H](C)[C@@H](O)[C@]1(C)O [Example 39, 9-[O-(2-isopropylamino)-oxime] of erythromycin] | 0.1 µg/mL (≈ 0.12 µM) | 0.6 µg/mL (≈ 0.719 µM) | 0.3 µg/mL (≈ 0.36 µM) | 0.4 µg/mL (≈ 0.48 µM) | 0.01 µg/mL (≈ 0.012 µM) | 0.05 µg/mL (≈ 0.0599 µM) | ≤ 0.02 µg/mL | – | – | –

Second part, led by results:

Row | MIC [1] | MIC [2] | MIC [3] | MIC [4] | MIC [5] | MIC [6] | MIC [7] | Structure (SMILES) | No. of mice living on the 8th day [8, 9] | No. of mice living on the 8th day [8, 10] | No. of mice living on the 8th day [8, 11]
10 | 0.2 µg/mL (≈ 0.248 µM) | 0.6 µg/mL (≈ 0.743 µM) | 0.4 µg/mL (≈ 0.496 µM) | 0.4 µg/mL (≈ 0.496 µM) | 0.1 µg/mL (≈ 0.124 µM) | 0.1 µg/mL (≈ 0.124 µM) | 0.1 µg/mL (≈ 0.124 µM) | CCOCON=C1[C@H](C)C[C@@](C)(O)[C@H](O[C@@H]2O[C@H](C)C[C@H](N(C)C)[C@H]2O)[C@@H](C)[C@H](O[C@H]2C[C@@](C)(OC)[C@@H](O)[C@H](C)O2)[C@@H](C)C(=O)O[C@H](CC)[C@@](C)(O)[C@H](O)[C@H]1C [Example 20, 9-[0-(ethoxymethyl)-oxime] of erythromycin] | 4 mice | 2 mice | 10 mice
11 | 0.2 µg/mL (≈ 0.236 µM) | 1 µg/mL (≈ 1.18 µM) | 0.4 µg/mL (≈ 0.473 µM) | 0.6 µg/mL (≈ 0.709 µM) | ≤ 0.01 µg/mL | 0.05 µg/mL (≈ 0.0591 µM) | 0.1 µg/mL (≈ 0.118 µM) | CC[C@H]1OC(=O)[C@H](C)[C@@H](O[C@H]2C[C@@](C)(OC)[C@@H](O)[C@H](C)O2)[C@H](C)[C@@H](O[C@@H]2O[C@H](C)C[C@H](N(C)C)[C@H]2O)[C@](C)(O)C[C@@H](C)C(=NOCCN2CCCC2)[C@H](C)[C@@H](O)[C@]1(C)O [Example 32, 9-[0-(2-{pyrrolidin-1-yl}-ethyl)-oxime] of erythromycin] | – | – | –
12 | 1 µg/mL (≈ 1.12 µM) | 0.1 µg/mL (≈ 0.112 µM) | 0.6 µg/mL (≈ 0.673 µM) | 0.6 µg/mL (≈ 0.673 µM) | 0.1 µg/mL (≈ 0.112 µM) | 0.2 µg/mL (≈ 0.224 µM) | 0.2 µg/mL (≈ 0.224 µM) | CC[C@H]1OC(=O)[C@H](C)[C@@H](O[C@H]2C[C@@](C)(OC)[C@@H](O)[C@H](C)O2)[C@H](C)[C@@H](O[C@@H]2O[C@H](C)C[C@H](N(C)C)[C@H]2O)[C@](C)(O)C[C@@H](C)C(=NOCOCCN2CCOCC2)[C@H](C)[C@@H](O)[C@]1(C)O [Example 26, 9-[0-{(2-(morpholin-4-yl)-ethoxy}-methyl)-oxime] of erythromycin] | – | – | –
13 | 0.2 µg/mL (≈ 0.239 µM) | 0.5 µg/mL (≈ 0.598 µM) | 0.5 µg/mL (≈ 0.598 µM) | 0.5 µg/mL (≈ 0.598 µM) | ≤ 0.01 µg/mL | 0.05 µg/mL (≈ 0.0598 µM) | 0.05 µg/mL (≈ 0.0598 µM) | CC[C@H]1OC(=O)[C@H](C)[C@@H](O[C@H]2C[C@@](C)(OC)[C@@H](O)[C@H](C)O2)[C@H](C)[C@@H](O[C@@H]2O[C@H](C)C[C@H](N(C)C)[C@H]2O)[C@](C)(O)C[C@@H](C)C(=NOCOCCNC)[C@H](C)[C@@H](O)[C@]1(C)O [Example 25, 9-[0-{(2-methylamino-ethoxy}-methyl)-oxime] of erythromycin] | – | – | –

From US4349545A, “Novel erythromycin a derivatives” (Roussel Uclaf, priority 1980, dated 1982)
